Assays:
[1] = tested on: microsomes isolated from MCF-7/ADR cells; assay: In vitro acidification of MCF-7/ADR microsomes (acridine orange quenching); type: biochemical
Protocol: Cells were grown in Minimal Essential. Medium supplemented with 10% Fetal Bovine Serum to confluence in 10 level Cell Factories (Nunc, Naperville, Ill.), trypsinized, washed 3× with cold PBS and lysed with a Dounce homogenizer (Pestle A) in 0.25 M sucrose, 20 mM HEPES (pH 7.4), 1 mM DTT, 1 mM EDTA, and 1× protease inhibitor mix (1 μg/ml leupeptin, 1 μ/ml pepstatin A, 1 μg/ml aprotinin, and 16 μM PMSF mixed to 100× before use). The homogenate was centrifuged twice for 10 minutes at 3000×g to remove unbroken cells and nuclei. The supernatant was layered over 20 ml of 0.5 M sucrose (20 mM HEPES (pH 7.4), 1 mM DTT, 1 mM EDTA, 1× protease inhibitor mix) and 1 ml of 2 M sucrose and centrifuged for 1 hour at 100,000 g (Beckman Ti60 Rotor). Microsomes are collected at the 0.5M and 2M interface.
To monitor acidification of the total microsomal fraction, the quenching of AO fluorescence was monitored essentially as described previously [Barasch et al., Nature 352:70-73 (1991)]. Acidic vesicles accumulate AO to high concentrations resulting in the self quenching of the dye and a decrease of the overall fluorescence. Fluorescence was measured on an SLM Aminco-Bowman series 2 luminescence spectrometer with λex =488 nm and λem =530 nm Microsomes (80 μg protein) were suspended in 2.5 ml vesicle buffer (125 mM KCl, 5 mM MgCl2, 20 mM HEPES (pH 7.4), 1 mM DTT, 1 mM EDTA, 2 mM NaN3), with 6 μM AO (5 mM stock in H2 O) in a cuvet. […] After equilibration for 30 minutes at 25° C. 1 mM Tris-ATP was added to begin acidification (100 mM stock, titrated to pH 7.4 with 1 M Tris-base before use). Twenty minutes later, 2.5 μM of nigericin (10 mM stock in EtOH) was added to dissipate any ΔpH formation.
Acridine orange (AO) was used as a probe for lumenal acidification. As vesicles acidify, they accumulate AO to self-quenching concentrations, and deplete the extra-vesicular free AO, resulting in a decrease in total fluorescence. Acidification was initiated by the addition of ATP to a purified microsomal fraction in the absence of cytosol (FIG. 1A, at t=300 sec). […] Nigericin, a K^+ /H^+ exchanger that rapidly dissipates pH gradients, was added at the end of each reaction (t=1500 seconds).

[2] = Liposome chloride concentration (lucigenin)
[3] = NMR in 10% Triton solution; cited from earlier work
[4] = tested on: recycling endosomes of MCF-7/ADR cells; assay: In vitro acidification of recycling endosomes (FITC-transferrin); type: biochemical
Protocol: Acidification from the recycling endosomal fraction was monitored by first incubating cells with FITC-transferrin for 30 minutes before lysis and isolation of microsomes. Acidification was monitored by excitation of the FITC fluorophore at 450 and 488 nm and measuring λem =520 nm as described previously.
To specifically examine the acidification of the endosomes in vitro, in vitro acidification was assayed using FITC-transferrin which is constrained by the transferrin receptor to the endocytic pathway. MCF-7/ADR cells were incubated with FITC-transferrin before lysis and isolation of microsomes. Since this assay is not based on the redistribution of probes, it further serves as verification that AO quenching resulted from vesicular acidification. Upon addition of ATP, there was a decrease in the ratio of the FITC-emission (FIG. 1C). This signal was the consequence of acidification, since it was reversed upon the addition of nigericin.

[5] = tested on: yeast vacuoles; assay: Acidification of yeast vacuoles (acridine orange); type: biochemical, S. cerevisiae
Protocol: Vacuoles from S. cerevisiae were prepared from the protease deficient strain BJ2407 (Yeast Genetic Stock Center, University of California, Berkeley) by sequential floatation through 12% and 8% Ficoll 400 cushion as described previously [Roberts et al., Methods Enzymol, 194:644-661 (1991)] with the single modification that 1× protease inhibitor mix and 1 mM DTT was included in each step. […] Acidification was measured using AO as described above. For acidification in chloride-free solution, gluconate or glutamate was used in vesicle buffer instead of chloride.
ATP (1.5 mM) was added at 50 sec to initiate acidification and at 400 sec nigericin (1 μM) was added to dissipate pH gradients.

[6] = tested on: E. coli inverted membrane vesicles; assay: Acidification of E. coli inverted membrane vesicles (acridine orange); type: biochemical; settings: 0.63 μM, 2 μM, 10 μM; similar dose dependence as mammalian and yeast vesicles
Protocol: InV were prepared from the DH5α strain as described [Simon and Blobel, Cell 69:677-684 (1992)]. Acidification was measured using AO as described above.
Unlike mammalian or yeast vesicles, InV utilize the F0 F1 -ATPase for acidification and are composed of different types of lipids, including an abundance of cardiolipin and a lack of sterols.

[7] = tested on: yeast vacuoles; assay: Vm of yeast vacuoles (Oxonol V); type: biochemical, S. cerevisiae; settings: 10 μM, KCl or K-gluconate buffer, 2.5 mM ATP
Protocol: Oxonol V is a membrane permeable anionic fluorescent probe that accumulates into the inner leaflet of vesicles with positive Vm, resulting in quenching of fluorescence. Vacuoles were suspended in chloride or gluconate vesicle buffer with 1 μM Oxonol V. Fluorescence was measured with a λex =600 nm and λem =630 nm. After fluorescence has equilibrated, vacuoles were added and the fluorescence is allowed to re-equilibrate. Then, 1 mM Tris-ATP was added and the resulting positive Vm was manifested in fluorescence quenching.
The fluorescent dye Oxonal V was used to monitor Vm.
The Vm was monitored in either KCl or K-gluconate buffer (FIG. 3A).

[8] = tested on: yeast vATPase; assay: Bafilomycin-inhibitable ATPase activity of yeast vATPase; type: biochemical, S. cerevisiae; settings: 5 μM, chloride and gluconate buffer
Protocol: Vacuoles were diluted in KCl or K-gluconate vesicle buffer. […] Each of the four resulting samples was again split into two and either carrier or […] bafilomycin A1 was added. Next, 2 mM Tris-ATP was added to each sample and the vacuoles were incubated at 30° C. for 15 minutes. To measure the phosphate concentration from ATP hydrolysis, equal volume of Taussky-Shorr Reagent (1% w/v ainmoniummolybdate (w/v), 2.7% v/v sulfuric acid, and 5% w/v ferrous sulfate hexahydrate) was added and the samples were developed for 15 minutes. The A660 was measured (Spectronic Genesys 2) which is linearly related to phosphate concentration. The bafilomycin inlubtable ATPase activity was taken as the difference between the ATPase activity of each condition with or without 100 nM bafilomycin A1.
Replacing chloride with gluconate decreased the bafilomycin-inhibitable ATPase activity (FIG. 3B), further confirming that chloride provided the counter-ion transport to dissipate the Vm.

SMILES: CC/C(=C(\c1ccccc1)c1ccc(OCCN(C)C)cc1)c1ccccc1 [tamoxifen]
- time to almost complete dissipation of the pH gradient ([1]; added 10 minutes after ATP, 8 μM tamoxifen (FIG. 1B)): ≤ 5 minutes
- rate of dissipation of pre-existing pH gradient ([1]; added 10 minutes after ATP, tamoxifen 8 μM, bafilomycin A1 100 nM): rapidly reversed acidification
- concentration at which acidification was totally blocked ([1]; pre-treated 30 minutes): 8 µM
- concentration at which inhibition of acidification was evident ([1]; pre-treated 30 minutes): 1 µM
- rate of chloride influx in the presence of valinomycin ([2]; 4 μM tamoxifen with 1 μM valinomycin, 50 mM KCl): increased the rate of chloride influx
- rate of chloride influx into liposomes ([2]; after addition of 50 mM KCl, tamoxifen 2, 4, 8 μM, valinomycin 1 μM): dose dependent increase in the rate of chloride influx
- pKa [3]: 6.9
- effect on ATP-dependent acidification of recycling endosomes ([4]; 2.5 μM added after ATP): partially reversed the acidification
- effect on ATP-dependent acidification of recycling endosomes ([4]; concentration raised an additional 2.5 μM): farher reduced
- effect of addition to pre-acidified vacuoles ([5]; added at 250 sec, tamoxifen 2 μM, ammonium 1 mM): rapid alkaline step followed by slower alkalinization
- concentration giving complete inhibition of acidification ([5]; pre-equilibrated, 1.5 mM ATP, KCl buffer): 8 µM
- inhibition of vacuole acidification ([5]; pre-equilibrated, tamoxifen 2 μM or 8 μM, ammonium chloride 1 mM): dose dependent inhibition of acidification
- effect on ATP-dependent acidification of InV [6]: inhibited acidification
- effect on Vm generated by the vATPase [7]: significantly decreased the Vm
- effect on bafilomycin-inhibitable ATPase activity [8]: increase of ATPase activity

From patent US6204067A, “Methods of identifying modulators of the estrogen receptor” (Board of Trustees Operating Michigan State University, priority 1999, dated 2001)
